Assays:
Experiment in all cases: relative viability (nuclei count vs DMSO), 5 days (fraction); higher = more cells survive
NCI-H661 = tested on: NCI-H661
Method in brief: (§1)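 Medians of duplicate plates are given as relative viability. That measure is the nuclei count in treated wells divided by the count in vehicle wells. Counts were taken on 4× images of lung cancer cell lines in 1536-well plates, 5 days after pin-tool dosing the day after seeding with one drug alone or a fixed anchor-drug dose plus five library-drug doses (not always all listed) in √10 steps.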

NCI-H2228 = tested on: NCI-H2228
Method in brief: as §1

RERF-LC-KJ = tested on: RERF-LC-KJ
Method in brief: as §1

NCI-H1755 = tested on: NCI-H1755
Method in brief: as §1

NCI-H1734 = tested on: NCI-H1734
Method in brief: as §1

NCI-H520 = tested on: NCI-H520
Method in brief: as §1

NCI-H1563 = tested on: NCI-H1563
Method in brief: as §1

HCC-827 = tested on: HCC-827
Method in brief: as §1

NCI-H1355 = tested on: NCI-H1355
Method in brief: as §1

LCLC-97TM1 = tested on: LCLC-97TM1
Method in brief: as §1

HCC-15 = tested on: HCC-15
Method in brief: as §1

H3255 = tested on: H3255
Method in brief: as §1

CAL-12T = tested on: CAL-12T
Method in brief: as §1

PC-3 [JPC-3] = tested on: PC-3 [JPC-3]
Method in brief: as §1

LK-2 = tested on: LK-2
Method in brief: as §1

EKVX = tested on: EKVX
Method in brief: as §1

NCI-H2405 = tested on: NCI-H2405
Method in brief: as §1

NCI-H322M = tested on: NCI-H322M
Method in brief: as §1

PC-14 = tested on: PC-14
Method in brief: as §1

NCI-H1975 = tested on: NCI-H1975
Method in brief: as §1

`COc1nc(C)cnc1NS(=O)(=O)c1cccnc1-c1ccc(-c2nnco2)cc1` [Zibotentan] + C[C@]1(O)C[C@@H](c2nc(-c3ccc4ccc(-c5ccccc5)nc4c3)c3c(N)nccn32)C1 [Linsitinib] (partner 1 µM) showed a relative viability (NCI-H661; first compound 0.08 µM) of 0.545, a relative viability (NCI-H661; first compound 0.253 µM) of 0.486 and a relative viability (NCI-H661; first compound 0.8 µM) of 0.518. For the same compound, the relative viability (NCI-H661; first compound 2.53 µM) was 0.68, the relative viability (NCI-H2228; first compound 0.08 µM) was 0.722 and the relative viability (NCI-H2228; first compound 0.253 µM) was 0.467. The relative viability (NCI-H2228; first compound 0.8 µM) was 0.903, the relative viability (NCI-H2228; first compound 2.53 µM) was 0.728 and the relative viability (RERF-LC-KJ; first compound 0.08 µM) was 0.885. The relative viability (RERF-LC-KJ; first compound 0.253 µM) was 0.859, the relative viability (RERF-LC-KJ; first compound 0.8 µM) was 0.803 and the relative viability (RERF-LC-KJ; first compound 2.53 µM) was 0.892. For the same compound, the relative viability (NCI-H1755; first compound 0.08 µM) was 0.99, the relative viability (NCI-H1755; first compound 0.253 µM) was 0.967 and the relative viability (NCI-H1755; first compound 0.8 µM) was 1.03. For the same compound, the relative viability (NCI-H1755; first compound 2.53 µM) was 1.03, the relative viability (NCI-H1734; first compound 0.08 µM) was 1.01 and the relative viability (NCI-H1734; first compound 0.253 µM) was 0.815. The relative viability (NCI-H1734; first compound 0.8 µM) was 0.936, the relative viability (NCI-H1734; first compound 2.53 µM) was 0.975 and the relative viability (NCI-H520; first compound 0.08 µM) was 1.05. It also gave a relative viability (NCI-H520; first compound 0.253 µM) of 0.892, a relative viability (NCI-H520; first compound 0.8 µM) of 0.904 and a relative viability (NCI-H520; first compound 2.53 µM) of 1.02. For the same compound, the relative viability (NCI-H1563; first compound 0.08 µM) was 1.17, the relative viability (NCI-H1563; first compound 0.253 µM) was 0.789 and the relative viability (NCI-H1563; first compound 0.8 µM) was 1.39. The relative viability (NCI-H1563; first compound 2.53 µM) was 1.34, the relative viability (HCC-827; first compound 0.08 µM) was 0.994 and the relative viability (HCC-827; first compound 0.253 µM) was 0.993. For the same compound, the relative viability (HCC-827; first compound 0.8 µM) was 0.98, the relative viability (HCC-827; first compound 2.53 µM) was 0.988 and the relative viability (NCI-H1355; first compound 0.08 µM) was 0.812. For the same compound, the relative viability (NCI-H1355; first compound 0.253 µM) was 0.818, the relative viability (NCI-H1355; first compound 0.8 µM) was 0.824 and the relative viability (NCI-H1355; first compound 2.53 µM) was 0.909. It also gave a relative viability (LCLC-97TM1; first compound 0.08 µM) of 0.152, a relative viability (LCLC-97TM1; first compound 0.253 µM) of 0.171 and a relative viability (LCLC-97TM1; first compound 0.8 µM) of 0.175. The relative viability (LCLC-97TM1; first compound 2.53 µM) was 0.215, the relative viability (HCC-15; first compound 0.08 µM) was 0.905 and the relative viability (HCC-15; first compound 0.253 µM) was 0.912. It also gave a relative viability (HCC-15; first compound 0.8 µM) of 0.867, a relative viability (HCC-15; first compound 2.53 µM) of 0.878 and a relative viability (H3255; first compound 0.08 µM) of 1.02. It also gave a relative viability (H3255; first compound 0.253 µM) of 0.998, a relative viability (H3255; first compound 0.8 µM) of 0.899 and a relative viability (H3255; first compound 2.53 µM) of 0.983. For the same compound, the relative viability (CAL-12T; first compound 0.08 µM) was 0.903, the relative viability (CAL-12T; first compound 0.253 µM) was 0.876 and the relative viability (CAL-12T; first compound 0.8 µM) was 0.889. For the same compound, the relative viability (CAL-12T; first compound 2.53 µM) was 0.634, the relative viability (PC-3 [JPC-3]; first compound 0.08 µM) was 0.931 and the relative viability (PC-3 [JPC-3]; first compound 0.253 µM) was 0.964. The relative viability (PC-3 [JPC-3]; first compound 0.8 µM) was 1.01, the relative viability (PC-3 [JPC-3]; first compound 2.53 µM) was 0.98 and the relative viability (LK-2; first compound 0.08 µM) was 0.709. The relative viability (LK-2; first compound 0.253 µM) was 0.535, the relative viability (LK-2; first compound 2.53 µM) was 0.701 and the relative viability (EKVX; first compound 0.08 µM) was 1.02. For the same compound, the relative viability (EKVX; first compound 0.253 µM) was 1.02, the relative viability (EKVX; first compound 0.8 µM) was 0.777 and the relative viability (EKVX; first compound 2.53 µM) was 1.16. The relative viability (NCI-H2405; first compound 0.08 µM) was 1.07, the relative viability (NCI-H2405; first compound 0.253 µM) was 0.796 and the relative viability (NCI-H2405; first compound 0.8 µM) was 0.908. The relative viability (NCI-H2405; first compound 2.53 µM) was 0.959, the relative viability (NCI-H322M; first compound 0.08 µM) was 0.912 and the relative viability (NCI-H322M; first compound 0.253 µM) was 0.898. For the same compound, the relative viability (NCI-H322M; first compound 0.8 µM) was 0.933, the relative viability (NCI-H322M; first compound 2.53 µM) was 0.843 and the relative viability (PC-14; first compound 0.08 µM) was 1. For the same compound, the relative viability (PC-14; first compound 0.253 µM) was 0.888, the relative viability (PC-14; first compound 0.8 µM) was 0.937 and the relative viability (PC-14; first compound 2.53 µM) was 1.02. For the same compound, the relative viability (NCI-H1975; first compound 0.08 µM) was 0.947, the relative viability (NCI-H1975; first compound 0.253 µM) was 0.895 and the relative viability (NCI-H1975; first compound 0.8 µM) was 0.94. For the same compound, the relative viability (NCI-H1975; first compound 2.53 µM) was 0.884.
